Measurements: article PMC12463534, “Exploring the Anticancer Properties of 4-Phenylthiazole-Based Ru(II) and Os(II) Metallacycles Featuring 1-Methylimidazole as N-Donor Functionality” (Bioinorganic Chemistry and Applications, 2025)

Assays:
[1] = tested on: SW480 cells; experiment: DCFH-DA assay, cellular ROS levels; assay type: cell-based, human; details: 2 h, concentration dependent
Description: For this approach, SW480 cells were subjected to the 2′,7′-dichlorofluorescin-diacetate (DCFH-DA) assay.
SW480 colon adenocarcinoma cells were trypsinized for 5 min in a humidified incubator at 37°C and under a 5% CO2 atmosphere. Supplemented MEM was added to stop trypsinization, and cells were centrifuged for 3 min at 1200 rpm (Heraeus Megafuge 1.0R). After cell counting, SW480 cells were seeded in 100-μL aliquots in densities of 2.5 × 10^4 cells/well into 96-well clear flat-bottom microplates (CytoOne, TC-treated, from Starlab). After incubation for 24 h, cells were washed with 200 μL of Hanks' balanced salt solution (HBSS; Sigma-Aldrich; supplemented with 1% heat-inactivated FCS). […] After washing cells with 200 μL of supplemented HBSS, serially diluted test compounds in phenol-red-free Opti-MEM (Gibco), supplemented with 1% heat-inactivated FCS, were added in 200-μl triplicates and tert-butyl hydroperoxide (TBHP) was applied as positive control. […] Blank-corrected values were calculated relative to negative controls (treated with drug-free supplemented Opti-MEM) from three independent experiments.

[2] = tested on: Balb/c mice; experiment: Toxicity experiments in Balb/c mice (MTD); details: mice, i.p.
Description: Finally, we were interested in the anticancer activity of selected complexes of our panel in an in vivo mouse setting. Before injecting the compounds in tumor-bearing mice, toxicity experiments were performed. […] On the last day of therapy, most animals were sacrificed and tissues as well as tumors collected. Only four mice (per group) were kept to get information on the impact of the drugs on the overall survival.

[3] = tested on: CT26 tumor; experiment: Anticancer activity in CT26 tumor-bearing BALB/c mice; assay type: in vivo; details: i.p. 50 mg/kg, 5 times a week for two weeks, did not reach statistical significance
Description: Figure 5 Anticancer activity of 1c and 3c in vivo. CT26-bearing BALB/c mice were treated i.p. with 50 mg/kg for five consecutive days for 2 weeks. (a) Impact on tumor growth; data are presented as mean ± SEM. […] On Day 15, most of the animals were sacrificed and tissues collected for further analyses. Of each group, 4 animals were kept to assess the impact on overall survival, which is shown in (b). Statistical significance was tested by log-rank test and Mantel–Cox post-test, ^∗p < 0.01. (c) The ruthenium levels measured by ICP-MS in the collected tissue samples of the mice, which were sacrificed 2 h after the last treatment.
(§1) CT26 cells (5 × 10^5 cells in 50-μL serum-free medium) were injected subcutaneously (s.c.) into the right flank of 8–16-week-old BALB/c mice (Envigo Laboratories, San Pietro Al Natisone, Italy). After 3 days, therapy treatment started on five consecutive days for 2 weeks. Animals were treated i.p. with 50 mg/kg 1c and 3c (all dissolved in 10% DMSO in 0.9% NaCl, 12 mice per group). The solvent control animals received 10% DMSO in 0.9% NaCl. Every day, the animals were monitored for the overall health conditions and tumor size was measured regularly by caliper measurement. Tumor volumes (mm^3) were calculated using following formula: length × width^2/2. In the overall survival arm of the experiment, mice were sacrificed by cervical dislocation in the case of a tumor length > 20 mm or tumor ulceration or a decreased body weight of ∼20%. Tumor growth and possible side effects of the treatment were evaluated by daily recording the tumor size by caliper measurement and parameters of the animal's overall health conditions. In the tissue sampling arm at the experiment, the mice were sacrificed by cervical dislocation 2 h after the last treatment. Tumors as well as organs were collected. Additionally, blood was drawn and incubated for 25 min to allow blood clotting. To isolate serum and blood pellets, the blood was centrifuged for 10 min at 17,900 g at room temperature. The supernatant characterized as serum was transferred to a new tube and centrifuged again to remove residual red blood cells. All collected samples were stored at −20°C and further processed for platinum measurements via ICP-MS.

[4] = Ruthenium levels in tissues by ICP-MS; assay type: in vivo; details: CT26-bearing mice, 2 h after last injection
Description: Tumor-specific organs and blood serum, harvested from the other animals 2 h after the last injection (Figure 5(c)), were measured for the average ruthenium content by inductively coupled plasma mass spectrometry (ICP-MS) of tissue homogenates.
as §1, with “In the overall survival arm of the experiment, mice were sacrificed by cervical dislocation in the case of a tumor length > 20 mm or tumor ulceration or a decreased body weight of ∼20%.” left out
The ruthenium concentration was determined by ICP-MS analysis. Ruthenium and rhenium standards were derived from LabKings (LabKings B.V., The Netherlands). The total ruthenium content was determined with a quadrupole-based ICP-MS instrument Agilent 7800 (Agilent Technologies, Tokyo, Japan) equipped with the Agilent SPS 4 autosampler (Agilent Technologies, Tokyo, Japan) and a MicroMist nebulizer at a sample uptake rate of approximately 0.2 mL·min^−1. […] Argon was used as plasma gas (15 L·min^−1) and as carrier gas (∼1.08 L·min^−1). The integration time was set to 0.1 s, and measurements were performed in 6 replicates with 100 sweeps. Rhenium served as internal standard for ruthenium.

[5] = tested on: A549 lung adenocarcinoma cells; set-up: method as in PMID 38426897; details: MTT assay, exposure time 96 h; ref [5]; read-out: 50% inhibitory concentration A549 (chlorido complexes, reference) (converted); cited from earlier work
[6] = tested on: SW480 colon adenocarcinoma cells; set-up: method as in PMID 38426897; details: MTT assay, exposure time 96 h; ref [5]; read-out: 50% inhibitory concentration SW480 (chlorido complexes, reference) (converted); cited from earlier work
[7] = tested on: CH1/PA-1 ovarian teratocarcinoma cells; set-up: method as in PMID 38426897; details: MTT assay, exposure time 96 h; ref [5]; read-out: 50% inhibitory concentration CH1 (chlorido complexes, reference) (converted); cited from earlier work
[8] = tested on: G4 forming sequences (h-Telo, bcl2, hTERT, Kit1, Kit2) and dsDNA; set-up: method as in PMID 38426897; details: recent work; ref [5]; cited from earlier work
[9] = tested on: HCT116 colorectal cancer cell line (2D); experiment: Resazurin assay, HCT116 2D (monolayer) culture
Description: (§2) Both models were investigated by the fluorimetric resazurin assay after 96-h exposure.
(§3) HCT116 colorectal carcinoma cells (RRID:CVCL_0291 from ATCC) were cultivated in McCoy's 5A medium, supplemented with 10% heat-inactivated fetal bovine serum and 4 mM L-glutamine.
(§4) For 2D experiments, HCT116 cells were harvested from culture flasks by trypsinization, seeded in 100-μL aliquots into 96-well microculture plates (CytoOne, TC-treated, from Starlab) in densities of 2 × 10^3 cells per well, and incubated for 24 h prior to exposure to the test compounds. […] Stock solutions of test compounds were prepared in DMF, which were then diluted in McCoy's 5A-supplemented medium (not to exceed a final content of 0.5% v/v of organic solvent in the test plates), and serial dilutions were added in aliquots of 100 μL per well. […] After incubation for 4 h, fluorescence was measured with a microplate reader (Bio-Tek, SynergyHT) at a wavelength of 530 nm, additionally using a reference wavelength of 620 nm.

[10] = tested on: HCT116 multicellular tumor spheroids (3D); experiment: Resazurin assay, HCT116 3D multicellular tumor spheroids
Description: as §2, §3, §4

CS(=O)(=O)c1ccc(-c2cscn2)[c]([Ru][Cl])c1.Cc1ccc(C(C)C)cc1 [Compound 1c]
Effect on intracellular ROS levels [1]: constantly decrease ROS levels with increasing concentrations
Tolerated dose [2]: at least 50 mg/kg
Impact on tumor volume (anticancer activity) [3]: slight anticancer activity
Kidney ruthenium levels, fold higher compared to 3c [4]: 10 fold
Ruthenium level in liver [4]: ~20 mg/kg
Ruthenium level in tumor [4]: ~1 mg/kg
IC50 [5]: 12 µM
IC50 [6]: 5.1 µM
IC50 [7]: 1.6 µM
Stabilization of DNA G-quadruplex structures [8]: stabilize DNA G-quadruplex (G4) structures
Increase of cytotoxic activity by mesylation (1c vs 1a), 2D [9]: 2.8 times
IC50 ([9]; read-out: IC50 2D, resazurin assay, 96 h exposure): 6.5 ± 1.3 µM
Enhancement of cytotoxic activity by mesylation (1c vs 1a), 3D ([10]; HCT116 3D): 3.5 fold
IC50 ([10]; read-out: IC50 3D, HCT116 3D spheroids, resazurin assay, 96 h exposure): 8.9 ± 2.1 µM
